The inhibition is how much of the control response was suppressed. Higher therefore signals strong suppression.

The first assay deals with T1, bovine pancreatic PLA2 (Bos taurus, UniProt P00593).
T1 construct: from tissue; host or cells: bovine pancreas
T1 sequence (P00593 23-145): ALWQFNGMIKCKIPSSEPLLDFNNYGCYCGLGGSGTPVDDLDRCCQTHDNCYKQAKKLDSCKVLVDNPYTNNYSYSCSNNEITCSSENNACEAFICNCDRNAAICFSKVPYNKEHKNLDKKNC
Nature of the assay: Phospholipase A2 (PLA2) activity, enzyme assay. The class given is biochemical. The note with it: Table 20; from semilog plot of % inhibition vs concentration; substrate 1-stearoyl-2-[C^14]-arachidonyl-phosphatidylcholine; 37° C., pH 8, 20 min. The protocol:
Phospholipase A2 (PLA2) activity was measured using bovine pancreatic PLA2 as the enzyme and a sonicated dispersion of 1-stearoyl-2-[C^14 ]-arachidonyl-phosphatidylcholine (56 mCi/mmol) as the substrate in the following manner: 60 ng bovine pancreatic PLA2 was mixed and incubated with buffer and inhibitors (100 mM Tris, pH 8; 100 mM CaCl2; 20 mM EDTA, pH 8) at 37° C. for 10 min. to allow interaction between the enzyme and the drugs. The substrate (38 nCi) in buffer and 0.3% cholate was added to initiate the reaction which continued for 20 min. at 37° C. The total reaction volume was 0.1 ml. The reaction was stopped by adding 0.1 ml of an ice cold EtOH/HOAc 98:2 mixture. Released arachidonic acid was separated from the unreacted substrate via thin layer chromatography on silica gel (solvent system CHCl3 /MeOH/H2 O 14:6:1). The radioactivity of the two spots was quantified using a bioscanner.
Inhibitors were dissolved in buffer^13 and tested in duplicate within each experiment, and each inhibitor was tested in at least two experiments. When necessary, inhibitors were dissolved in DMSO^14. The % inhibition at a given concentration was combined for several experiments and the IC50 determined from a semilog plot of % inhibition vs concentration. Under the condition described the rate of hydrolysis was 20-25% of the substrate being hydrolyzed in absence of inhibitors.
^13 0.01 ml inhibitor solution were used in these experiments.
^14 0.005 ml inhibitor solution were used in these experiments (=5 vol %).
`O=C([C@H](Cc1ccccc1)NS(=O)(=O)c1ccccc1)N1CCNCC1` [Compound 1, N-benzenesulfonyl-L-phenylalanine piperazineamide]: the IC50 result is “promotion”. Regarding `C[C@H](NS(=O)(=O)c1ccccc1)C(=O)N1CCNCC1` [Compound 2, N-benzenesulfonyl-L-alanine piperazineamide], the IC50 result is “promotion”. `O=C([C@H](Cc1ccccc1)NS(=O)(=O)c1cccc2cnccc12)N1CCNCC1` [Compound 31, N-(5-isoquinolinesulfonyl)-L-phenylalanine piperazineamide]: the IC50 result was “promotion”.

In the case of `O=S(=O)(Nc1ccc(-c2ccccc2)cc1)c1cccc2cnccc12` [Compound 41, N-biphenyl-5-isoquinolinesulfonamide], the IC50 entry is on record as “promotion”.

The same assay, now with this note: Table 20; from semilog plot of % inhibition vs concentration; substrate 1-stearoyl-2-[C^14]-arachidonyl-phosphatidylcholine; 37° C., pH 8, 20 min; read-out: IC50.
With `O=C(Nc1ccc(-c2ccccc2)cc1)[C@H](Cc1ccccc1)NS(=O)(=O)c1ccccc1` [Compound 7, N-benzenesulfonyl-L-phenylalanine biphenylamide], the IC50 was found to be 310 µM.

In the case of `O=C(Nc1ccc(-c2ccccc2)cc1)[C@@H]1CCCN1S(=O)(=O)c1ccccc1` [Compound 10, N-benzenesulfonyl-L-proline biphenylamide], the IC50 is 520 µM. For the compound `O=C(Nc1ccc(-c2ccccc2)cc1)[C@H](Cc1c[nH]c2ccccc12)NS(=O)(=O)c1ccccc1` [Compound 11, N-benzenesulfonyl-L-tryptophane biphenylamide], the IC50 turned out to be 570 µM. For `O=C([C@H](Cc1ccccc1)NS(=O)(=O)c1cccc2c(Cl)cccc12)N1CCNCC1` [Compound 21, N-(5-chloro-1-naphthalenesulfonyl)-L-phenylalanine piperazineamide], the IC50 worked out at 600 µM. As to `CC(C)[C@H](NS(=O)(=O)c1cccc2c(Cl)cccc12)C(=O)N1CCNCC1` [Compound 22, N-(5-chloro-1-naphthalenesulfonyl)-L-valine piperazineamide], the IC50 came to 310 µM. As for `O=S(=O)(Nc1ccc(-c2ccccc2)cc1)c1cccc2c(Cl)cccc12` [Compound 30, N-biphenyl-5-chloro-1-naphthalenesulfonamide], the IC50 was 275 µM. With `NCCCCCCNC(=O)[C@H](Cc1ccccc1)NS(=O)(=O)c1cccc2cnccc12` [Compound 35, N-(5-isoquinolinesulfonyl)-L-phenylalanine-1,6-diaminohexaneamide], the IC50 is 263 µM.

With `CC(C)[C@H](NS(=O)(=O)c1cccc2cnccc12)C(=O)Nc1ccc(-c2ccccc2)cc1` [Compound 37, N-(5-isoquinolinesulfonyl)-L-valine biphenylamide], the IC50 turned out to be 470 µM. Regarding `O=C(Nc1ccc(-c2ccccc2)cc1)[C@@H]1CCCN1S(=O)(=O)c1cccc2cnccc12` [Compound 38, N-(5-isoquinolinesulfonyl)-L-proline biphenylamide], the IC50 is 130 µM. Turning to `O=C(Nc1ccc(-c2ccccc2)cc1)[C@H]1CCCN1S(=O)(=O)c1cccc2cnccc12` [Compound 40, N-(5-isoquinolinesulfonyl)-D-proline biphenylamide], the IC50 was 435 µM. As for `O=S(=O)(Nc1ccccc1)c1cccc2c(Cl)cccc12` [compound 43, reference compound], the IC50 turned out to be 190 µM.

Staying with this assay, now noted: at 10 μM.
Compound `O=S(=O)(Nc1ccc(-c2ccccc2)cc1)c1cccc2cnccc12` [Compound 41, N-biphenyl-5-isoquinolinesulfonamide] showed an inhibition at 10 µM of 31.6%.

Still in this assay, the particulars now being: at 100 μM.
`O=C([C@H](Cc1ccccc1)NS(=O)(=O)c1cccc2cnccc12)N1CCNCC1` [Compound 31, N-(5-isoquinolinesulfonyl)-L-phenylalanine piperazineamide] registered an inhibition at 100 µM of 70.1%. `O=S(=O)(Nc1ccc(-c2ccccc2)cc1)c1cccc2cnccc12` [Compound 41, N-biphenyl-5-isoquinolinesulfonamide] registered an inhibition at 100 µM of 28.3%.

Staying with this assay, now noted: at 300 μM.
The compound `O=C([C@H](Cc1ccccc1)NS(=O)(=O)c1cccc2cnccc12)N1CCNCC1` [Compound 31, N-(5-isoquinolinesulfonyl)-L-phenylalanine piperazineamide] showed an inhibition at 300 µM of 54%.

Staying with this assay, now noted: text example; read-out: IC50 (concentration which would bring about an inhibition of 50%).
On to `NCCCCCCNC(=O)[C@H](Cc1ccccc1)NS(=O)(=O)c1cccc2c(Cl)cccc12` [Compound 25, N-(5-chloro-1-naphthalenesulfonyl)-L-phenylalanine-1,6-diaminohexaneamide], for which the IC50 was determined as 67 µM.

The values are drawn from patent publication US5663174A, “Aromatic sulfonamide derivatives, their use as enzyme inhibitors and pharmaceutical compositions containing them” (Pharno-Wedropharm GmbH, priority 1997, dated 1997).
